Data on 16 molecules can be found in PubChem BioAssay AID256 (DTP/NCI, 2004).

The subject of this experiment is CD2F1 mice, L1210 leukemia ip, survival T/C. Briefly: NCI In Vivo Anticancer Drug Screen. Data for tumor model L1210 Leukemia (intraperitoneal) in CD2F1 (CDF1) mice. The following applies: higher = longer survival. Here is the method: The antitumor activity of compounds was measured in mice bearing transplantable tumors. Survival or tumor size were measured and the results are expressed as the measurement made in the treated group (T) divided by the measurement made in the vehicle treated control group (C). The tumor model used in this assay is L1210 Leukemia (intraperitoneal) in CD2F1 (CDF1) mice

[1] abbreviates: endpoint: mean survival time, dose: 100.0 mg/kg/injection, schedule: Q04DX003 (ip), vehicle: saline with Tween-80.
Setting [2] is: endpoint: mean survival time, dose: 200.0 mg/kg/injection, schedule: Q04DX003 (ip), vehicle: saline with Tween-80.
The mark [3] stands for this setting: endpoint: mean survival time, dose: 400.0 mg/kg/injection, schedule: Q04DX003 (ip), vehicle: saline with Tween-80.
Setting [4] is: endpoint: median survival time, dose: 12.5 mg/kg/injection, schedule: Q01DX009 (ip), vehicle: Klucel (hydroxypropylcellulose) (HPC).
Where [5] appears, read: endpoint: median survival time, dose: 25.0 mg/kg/injection, schedule: Q01DX009 (ip), vehicle: Klucel (hydroxypropylcellulose) (HPC).
Where [6] appears, read: endpoint: median survival time, dose: 50.0 mg/kg/injection, schedule: Q01DX009 (ip), vehicle: Klucel (hydroxypropylcellulose) (HPC).
[7] abbreviates: endpoint: median survival time, dose: 100.0 mg/kg/injection, schedule: Q01DX009 (ip), vehicle: Klucel (hydroxypropylcellulose) (HPC).

Where “and” joins values, the source holds several entries; their conditions need not be identical. Identical values can stand only once. Toxic doses and inconclusive results are not listed.

With `CCN(CC)c1ncnc2nncnc12`, the T/C is, setting by setting: (endpoint: mean survival time, dose: 100.0 mg/kg/injection, schedule: Q01DX001 (ip), vehicle: carboxymethylcellulose (CMC)) 101 % of control; (endpoint: mean survival time, dose: 200.0 mg/kg/injection, schedule: Q01DX001 (ip), vehicle: carboxymethylcellulose (CMC)) 96 % of control.

Consider `COc1ccc(C[C@H](N)C(=O)NC2C(CO)OC(n3cnc4c(N(C)C)ncnc43)C2O)cc1` (some centres undefined), for which the T/C was 104 % of control (endpoint: median survival time, dose: 25.0 mg/kg/injection, schedule: Q01DX005 (ip), vehicle: water); 111 % of control (endpoint: median survival time, dose: 50.0 mg/kg/injection, schedule: Q01DX005 (ip), vehicle: water); 100 % of control (endpoint: median survival time, dose: 100.0 mg/kg/injection, schedule: Q01DX005 (ip), vehicle: water).

With `Cc1cc(N(C)C)ccc1N=Nc1cc[n+]([O-])c(C)c1`, the T/C is, setting by setting: (endpoint: mean survival time, dose: 25.0 mg/kg/injection, schedule: Q01DX009 (ip), vehicle: saline with Tween-80) 103 % of control; (endpoint: mean survival time, dose: 50.0 mg/kg/injection, schedule: Q01DX009 (ip), vehicle: saline with Tween-80) 108 % of control; (endpoint: mean survival time, dose: 100.0 mg/kg/injection, schedule: Q01DX009 (ip), vehicle: saline with Tween-80) 103 % of control; under setting [1], 104 % of control; under setting [2], 102 % of control; under setting [3], 104 % of control.

With `CC(C)(C)N1CCCC1`, the T/C (endpoint: mean survival time, dose: 100.0 mg/kg/injection, schedule: Q04DX003 (ip), vehicle: acetone) is 96 % of control.

`O=[As](O)(O)c1ccccc1[As](=O)(O)O`: the T/C reads like this: (endpoint: mean survival time, dose: 6.25 mg/kg/injection, schedule: Q04DX003 (ip), vehicle: saline with Tween-80) 101 % of control; (endpoint: mean survival time, dose: 12.5 mg/kg/injection, schedule: Q04DX003 (ip), vehicle: saline with Tween-80) 101 % of control; (endpoint: mean survival time, dose: 25.0 mg/kg/injection, schedule: Q04DX003 (ip), vehicle: saline with Tween-80) 100 % of control.

`Nc1nc(N)c2nc(CNc3ccc(C(=O)NC(CCC(=O)O)C(=O)O)cc3)cnc2n1` (centres undefined): the T/C (endpoint: mean survival time, dose: 0.2 mg/kg/injection, schedule: Q01DX009 (ip), vehicle: alkali diluted with saline) was 150 % of control; the T/C (endpoint: mean survival time, dose: 0.3 mg/kg/injection, schedule: Q01DX009 (ip), vehicle: alkali diluted with saline) is 156 % of control; the T/C (endpoint: mean survival time, dose: 0.44 mg/kg/injection, schedule: Q01DX009 (ip), vehicle: alkali diluted with saline) was 174 % of control; the T/C (endpoint: mean survival time, dose: 0.67 mg/kg/injection, schedule: Q01DX009 (ip), vehicle: alkali diluted with saline) is 166 % of control; the T/C (endpoint: mean survival time, dose: 0.7 mg/kg/injection, schedule: Q01DX009 (ip), vehicle: alkali diluted with saline) is 118 % of control; the T/C (endpoint: mean survival time, dose: 1.0 mg/kg/injection, schedule: Q01DX009 (ip), vehicle: alkali diluted with saline) was 114 % of control. Moreover, the T/C was 96 % of control (endpoint: mean survival time, dose: 1.1 mg/kg/injection, schedule: Q01DX009 (ip), vehicle: alkali diluted with saline); 104 % of control (endpoint: mean survival time, dose: 1.5 mg/kg/injection, schedule: Q01DX009 (ip), vehicle: alkali diluted with saline); 86 % of control (endpoint: mean survival time, dose: 1.7 mg/kg/injection, schedule: Q01DX009 (ip), vehicle: alkali diluted with saline).

As for `COc1cc2c(cc1OC)C1CC(=O)CCN1CC2` (centres undefined), the T/C (endpoint: mean survival time, dose: 12.5 mg/kg/injection, schedule: Q01DX009 (ip), vehicle: Klucel (hydroxypropylcellulose) (HPC)) was 97 % of control and 104 % of control; the T/C (endpoint: mean survival time, dose: 25.0 mg/kg/injection, schedule: Q01DX009 (ip), vehicle: Klucel (hydroxypropylcellulose) (HPC)) is 97 % of control and 98 % of control; the T/C (endpoint: mean survival time, dose: 50.0 mg/kg/injection, schedule: Q01DX009 (ip), vehicle: Klucel (hydroxypropylcellulose) (HPC)) was 95 % of control and 98 % of control; the T/C (endpoint: mean survival time, dose: 100.0 mg/kg/injection, schedule: Q01DX009 (ip), vehicle: Klucel (hydroxypropylcellulose) (HPC)) is 97 % of control and 100 % of control; the T/C under setting [4] was 97 % of control; the T/C under setting [5] was 94 % of control. The T/C was 92 % of control under setting [6] and 101 % of control under setting [7].

Regarding `Cc1cccc(NC(=O)COc2c(C)cc(Cl)cc2Cl)c1`, the T/C is 98 % of control (endpoint: mean survival time, dose: 100.0 mg/kg/injection, schedule: Q04DX002 (ip), vehicle: saline with Tween-80); 94 % of control (endpoint: mean survival time, dose: 200.0 mg/kg/injection, schedule: Q04DX002 (ip), vehicle: saline with Tween-80); 90 % of control (endpoint: mean survival time, dose: 400.0 mg/kg/injection, schedule: Q04DX002 (ip), vehicle: saline with Tween-80).

On to `CCn1c(=O)c2nc(Cl)n(C3OCC(OC(C)=O)C(OC(C)=O)C3OC(C)=O)c2n(CC)c1=O` (centres undefined), for which the T/C was 96 % of control (endpoint: mean survival time, dose: 12.5 mg/kg/injection, schedule: Q01DX005 (ip), vehicle: distilled water + Tween-80); 96 % of control (endpoint: mean survival time, dose: 25.0 mg/kg/injection, schedule: Q01DX005 (ip), vehicle: distilled water + Tween-80); 96 % of control (endpoint: mean survival time, dose: 50.0 mg/kg/injection, schedule: Q01DX005 (ip), vehicle: distilled water + Tween-80); 98 % of control (endpoint: mean survival time, dose: 100.0 mg/kg/injection, schedule: Q01DX005 (ip), vehicle: distilled water + Tween-80); 98 % of control (endpoint: mean survival time, dose: 200.0 mg/kg/injection, schedule: Q01DX005 (ip), vehicle: distilled water + Tween-80).

In the case of `CN(C)C(=S)NCc1ccccc1`, the T/C runs as follows: under setting [1], 105 % of control; under setting [2], 109 % of control; under setting [3], 87 % of control.

Turning to `CCCCCCCCCCCC(CCCC)CCCCCCCCCC` (centres undefined), the T/C by setting is: (endpoint: mean survival time, dose: 100.0 mg/kg/injection, schedule: Q01DX001 (ip), vehicle: saline sonified) 96 % of control; (endpoint: mean survival time, dose: 200.0 mg/kg/injection, schedule: Q01DX001 (ip), vehicle: saline sonified) 102 % of control; (endpoint: mean survival time, dose: 400.0 mg/kg/injection, schedule: Q01DX001 (ip), vehicle: saline sonified) 108 % of control.

With `Cc1cccc([N+](=O)[O-])c1-c1ccccc1C(=O)O`, the T/C (endpoint: mean survival time, dose: 100.0 mg/kg/injection, schedule: Q01DX001 (ip), vehicle: Klucel (hydroxypropylcellulose) (HPC)) is 101 % of control; the T/C (endpoint: mean survival time, dose: 200.0 mg/kg/injection, schedule: Q01DX001 (ip), vehicle: Klucel (hydroxypropylcellulose) (HPC)) is 101 % of control; the T/C (endpoint: mean survival time, dose: 400.0 mg/kg/injection, schedule: Q01DX001 (ip), vehicle: Klucel (hydroxypropylcellulose) (HPC)) was 101 % of control.

As to `CCc1c2cc(OC)c(OC)cc2cc2c3cc(OC)c(OC)cc3cc[n+]12` (tested in a mixture with another compound), the T/C was 120 % of control (endpoint: mean survival time, dose: 14.6 mg/kg/injection, schedule: Q01DX009 (ip), vehicle: saline with Tween-80); 117 % of control (endpoint: mean survival time, dose: 33.0 mg/kg/injection, schedule: Q01DX009 (ip), vehicle: saline with Tween-80); 122 % of control (endpoint: mean survival time, dose: 50.0 mg/kg/injection, schedule: Q01DX009 (ip), vehicle: saline); 122 % of control (endpoint: mean survival time, dose: 50.0 mg/kg/injection, schedule: Q04DX003 (ip), vehicle: saline); 104 % of control (endpoint: mean survival time, dose: 100.0 mg/kg/injection, schedule: Q01DX009 (ip), vehicle: saline); 121 % of control and 123 % of control (endpoint: mean survival time, dose: 100.0 mg/kg/injection, schedule: Q04DX003 (ip), vehicle: saline). Moreover, the T/C is 101 % of control (endpoint: mean survival time, dose: 200.0 mg/kg/injection, schedule: Q04DX003 (ip), vehicle: saline); 121 % of control and 98 % of control (endpoint: mean survival time, dose: 400.0 mg/kg/injection, schedule: Q04DX003 (ip), vehicle: saline).

In the case of `COc1ccc(C(=S)c2ccc(OC)cc2)cc1`, the T/C was 101 % of control (endpoint: mean survival time, dose: 100.0 mg/kg/injection, schedule: Q01DX001 (ip), vehicle: saline with Tween-80); 96 % of control (endpoint: mean survival time, dose: 200.0 mg/kg/injection, schedule: Q01DX001 (ip), vehicle: saline with Tween-80); 101 % of control (endpoint: mean survival time, dose: 400.0 mg/kg/injection, schedule: Q01DX001 (ip), vehicle: saline with Tween-80).

Turning to `Cc1cc(NC(=S)SCc2ccc3c(c2)OCO3)ccc1Cl`, the T/C was 108 % of control under setting [4]; 100 % of control and 106 % of control and 110 % of control under setting [5]; 112 % of control and 113 % of control and 106 % of control under setting [6]; 114 % of control under setting [7]; 120 % of control (endpoint: median survival time, dose: 200.0 mg/kg/injection, schedule: Q01DX009 (ip), vehicle: Klucel (hydroxypropylcellulose) (HPC)).

For the molecule `CN(C)N=Nc1ccccc1C(=O)NCC#N`, the T/C is 100 % of control and 103 % of control (endpoint: mean survival time, dose: 18.75 mg/kg/injection, schedule: Q01DX009 (ip), vehicle: Klucel (hydroxypropylcellulose) (HPC)); 106 % of control and 107 % of control (endpoint: mean survival time, dose: 37.5 mg/kg/injection, schedule: Q01DX009 (ip), vehicle: Klucel (hydroxypropylcellulose) (HPC)); 112 % of control (endpoint: mean survival time, dose: 75.0 mg/kg/injection, schedule: Q01DX009 (ip), vehicle: Klucel (hydroxypropylcellulose) (HPC)); 91 % of control (endpoint: mean survival time, dose: 150.0 mg/kg/injection, schedule: Q01DX009 (ip), vehicle: Klucel (hydroxypropylcellulose) (HPC)).
